{"source": "patent US12281122B1", "about": "“PI3K inhibitors” (Cogent Biosciences, Inc., priority 2023, dated 2025)", "key": {"[1]": {"system": "T47D (PI3Kα-H1047R) cell line", "assay": "HTRF phospho-AKT(S473) cell assay in T47D cells", "type": "cell-based, human", "conditions": "Homo sapiens; T47D (PI3Kα-H1047R) cells, HTRF phospho-AKT(S473), 2 hours compound incubation", "method_in_brief": "(§1)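 Cells plated overnight (T47D in RPMI/10% FBS/0.2 units/mL insulin; SKBR3 in McCoy's 5A/10% FBS), then given 12-point 1:3 compound series (top 5 μM T47D, 10 μM SKBR3; ≤0.5% DMSO) for 2 h at 37° C. SKBR3 stimulated with 70 ng/ml PDGF-BB for final 15 min. Lysate pAKT(S473) by HTRF; IC50 calculated.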"}, "[2]": {"system": "SKBR3 (PI3Kα-Wild Type) cell line", "assay": "HTRF phospho-AKT(S473) cell assay in SKBR3 cells", "type": "cell-based, human", "conditions": "Homo sapiens, SK-BR-3; SKBR3 (PI3Kα-Wild Type) cells, HTRF phospho-AKT(S473), 2 hours compound incubation, PDGF-BB stimulated", "method_in_brief": "as §1"}}, "data": [{"smiles": "COc1cn(C)nc1C1CCN(c2nc3c([C@@H](C)Nc4ccc(Cl)nc4C(=O)NS(C)(=O)=O)cc(C)cc3c(=O)n2C)CC1", "note": "[Compound 316, (R)-6-chloro-3-((1-(2-(4-(4-methoxy-1-methyl-1H-pyrazol-3-yl)piperidin-1-yl)-3,6-dimethyl-4-oxo-3,4-dihydroquinazolin-8-yl)ethyl)amino)-N-(methylsulfonyl) picolinamide]", "values": [{"measurement": "IC50", "setting": "[1]", "value": "250 to 500", "unit": "nM"}, {"measurement": "IC50", "setting": "[2]", "value": "1000 to 5000", "unit": "nM"}]}, {"smiles": "COc1ccn(C2CCN(c3nc4c([C@@H](C)Nc5ccc(Cl)nc5C(=O)NS(C)(=O)=O)cc(C)cc4c(=O)n3C)CC2)n1", "note": "[Compound 317, (R)-6-chloro-3-((1-(2-(4-(3-methoxy-1H-pyrazol-1-yl)piperidin-1-yl)-3,6-dimethyl-4-oxo-3,4-dihydroquinazolin-8-yl)ethyl)amino)-N-(methylsulfonyl) picolinamide]", "values": [{"measurement": "IC50", "setting": "[1]", "value": "250 to 500", "unit": "nM"}, {"measurement": "IC50", "setting": "[2]", "value": "1000 to 5000", "unit": "nM"}]}, {"smiles": "COc1ccnn1C1CCN(c2nc3c([C@@H](C)Nc4ccc(Cl)nc4C(=O)NS(C)(=O)=O)cc(C)cc3c(=O)n2C)CC1", "note": "[Compound 318, (R)-6-chloro-3-((1-(2-(4-(5-methoxy-1H-pyrazol-1-yl)piperidin-1-yl)-3,6-dimethyl-4-oxo-3,4-dihydroquinazolin-8-yl)ethyl)amino)-N-(methylsulfonyl) picolinamide]", "values": [{"measurement": "IC50", "setting": "[1]", "value": "< 250", "unit": "nM"}, {"measurement": "IC50", "setting": "[2]", "value": "1000 to 5000", "unit": "nM"}]}, {"smiles": "Cc1cc([C@@H](C)Nc2ccc(Cl)nc2C(=O)NS(C)(=O)=O)c2nc(N3CCC(c4ccn(C)c(=O)c4)CC3)n(C)c(=O)c2c1", "note": "[Compound 319, (R)-6-chloro-3-((1-(3,6-dimethyl-2-(4-(1-methyl-2-oxo-1,2-dihydropyridin-4-yl)piperidin-1-yl)-4-oxo-3,4-dihydroquinazolin-8-yl)ethyl)amino)-N-(methylsulfonyl) picolinamide]", "values": [{"measurement": "IC50", "setting": "[1]", "value": "< 250", "unit": "nM"}, {"measurement": "IC50", "setting": "[2]", "value": "1000 to 5000", "unit": "nM"}]}, {"smiles": "Cc1cc([C@@H](C)Nc2ccc(Cl)nc2C(=O)NS(C)(=O)=O)c2nc(N3CC[C@@H](Oc4cnn(C)c4)C3)n(C)c(=O)c2c1", "note": "[Compound 320, 6-chloro-3-(((R)-1-(3,6-dimethyl-2-((R)-3-((1-methyl-1H-pyrazol-4-yl)oxy)pyrrolidin-1-yl)-4-oxo-3,4-dihydroquinazolin-8-yl)ethyl)amino)-N-(methylsulfonyl) picolinamide]", "values": [{"measurement": "IC50", "setting": "[1]", "value": "< 250", "unit": "nM"}, {"measurement": "IC50", "setting": "[2]", "value": "1000 to 5000", "unit": "nM"}]}, {"smiles": "Cc1cc([C@@H](C)Nc2ccc(Cl)nc2C(=O)NS(C)(=O)=O)c2nc(N3C[C@H]4C[C@@H](c5cnn(C)c5)[C@@H]3C4)n(C)c(=O)c2c1", "note": "[Compound 321, 6-chloro-3-(((R)-1-(3,6-dimethyl-2-((1S,4S,6RS)-6-(1-methyl-1H-pyrazol-4-yl)-2-azabicyclo[2.2.1]heptan-2-yl)-4-oxo-3,4-dihydroquinazolin-8-yl)ethyl)amino)-N-(methylsulfonyl) picolinamide]", "values": [{"measurement": "IC50", "setting": "[1]", "value": "250 to 500", "unit": "nM"}, {"measurement": "IC50", "setting": "[2]", "value": "1000 to 5000", "unit": "nM"}]}, {"smiles": "COc1cc(C2CCN(c3nc4c([C@@H](C)Nc5ccc(Cl)nc5C(=O)NS(C)(=O)=O)cc(C)cc4c(=O)n3C)CC2)n(C)n1", "note": "[Compound 325, (R)-6-chloro-3-((1-(2-(4-(3-methoxy-1-methyl-1H-pyrazol-5-yl)piperidin-1-yl)-3,6-dimethyl-4-oxo-3,4-dihydroquinazolin-8-yl)ethyl)amino)-N-(methylsulfonyl) picolinamide]", "values": [{"measurement": "IC50", "setting": "[1]", "value": "< 250", "unit": "nM"}, {"measurement": "IC50", "setting": "[2]", "value": "1000 to 5000", "unit": "nM"}]}, {"smiles": "COc1ccccc1-n1ncc2c1CN(c1nc3c([C@@H](C)Nc4ccc(Cl)nc4C(=O)NS(C)(=O)=O)cc(C)cc3c(=O)n1C)C2", "note": "[Compound 326, (R)-6-chloro-3-((1-(2-(1-(2-methoxyphenyl)-4,6-dihydropyrrolo[3,4-c]pyrazol-5(1H)-yl)-3,6-dimethyl-4-oxo-3,4-dihydroquinazolin-8-yl)ethyl)amino)-N-(methylsulfonyl) picolinamide]", "values": [{"measurement": "IC50", "setting": "[1]", "value": "< 250", "unit": "nM"}, {"measurement": "IC50", "setting": "[2]", "value": "1000 to 5000", "unit": "nM"}]}, {"smiles": "COc1cccnc1-n1cc2c(n1)CN(c1nc3c([C@@H](C)Nc4ccc(Cl)nc4C(=O)NS(C)(=O)=O)cc(C)cc3c(=O)n1C)C2", "note": "[Compound 327, (R)-6-chloro-3-((1-(2-(2-(3-methoxypyridin-2-yl)-2,6-dihydropyrrolo[3,4-c]pyrazol-5(4H)-yl)-3,6-dimethyl-4-oxo-3,4-dihydroquinazolin-8-yl)ethyl)amino)-N-(methylsulfonyl) picolinamide]", "values": [{"measurement": "IC50", "setting": "[1]", "value": "250 to 500", "unit": "nM"}, {"measurement": "IC50", "setting": "[2]", "value": "1000 to 5000", "unit": "nM"}]}, {"smiles": "Cc1cc([C@@H](C)Nc2ccc(Cl)nc2C(=O)NS(C)(=O)=O)c2nc(N3CCC4(CCCCOC4)CC3)n(C)c(=O)c2c1", "note": "[Compound 328, (R)-6-chloro-3-((1-(3,6-dimethyl-4-oxo-2-(8-oxa-3-azaspiro[5.6]dodecan-3-yl)-3,4-dihydroquinazolin-8-yl)ethyl)amino)-N-(methylsulfonyl) picolinamide]", "values": [{"measurement": "IC50", "setting": "[1]", "value": "250 to 500", "unit": "nM"}, {"measurement": "IC50", "setting": "[2]", "value": "≥ 5000", "unit": "nM"}]}, {"smiles": "Cc1cc([C@@H](C)Nc2ccc(Cl)nc2C(=O)NS(C)(=O)=O)c2nc(N3CC[C@@H](Oc4cnn(CC(F)(F)F)c4)C3)n(C)c(=O)c2c1", "note": "[Compound 329, 6-chloro-3-(((R)-1-(3,6-dimethyl-4-oxo-2-((R)-3-((1-(2,2,2-trifluoroethyl)-1H-pyrazol-4-yl)oxy)pyrrolidin-1-yl)-3,4-dihydroquinazolin-8-yl)ethyl)amino)-N-(methylsulfonyl) picolinamide]", "values": [{"measurement": "IC50", "setting": "[1]", "value": "< 250", "unit": "nM"}, {"measurement": "IC50", "setting": "[2]", "value": "1000 to 5000", "unit": "nM"}]}, {"smiles": "Cc1cc([C@@H](C)Nc2ccc(Cl)nc2C(=O)NS(C)(=O)=O)c2nc(N3CC[C@H](Oc4cnn(CC(F)(F)F)c4)C3)n(C)c(=O)c2c1", "note": "[Compound 330, 6-chloro-3-(((R)-1-(3,6-dimethyl-4-oxo-2-((S)-3-((1-(2,2,2-trifluoroethyl)-1H-pyrazol-4-yl)oxy)pyrrolidin-1-yl)-3,4-dihydroquinazolin-8-yl)ethyl)amino)-N-(methylsulfonyl) picolinamide]", "values": [{"measurement": "IC50", "setting": "[1]", "value": "< 250", "unit": "nM"}, {"measurement": "IC50", "setting": "[2]", "value": "1000 to 5000", "unit": "nM"}]}, {"smiles": "Cc1cc([C@@H](C)Nc2ccc(Cl)nc2C(=O)NS(C)(=O)=O)c2nc(N3CC[C@H](Oc4cnn(C)c4)C3)n(C)c(=O)c2c1", "note": "[Compound 331, 6-chloro-3-(((R)-1-(3,6-dimethyl-2-((S)-3-((1-methyl-1H-pyrazol-4-yl)oxy)pyrrolidin-1-yl)-4-oxo-3,4-dihydroquinazolin-8-yl)ethyl)amino)-N-(methylsulfonyl) picolinamide]", "values": [{"measurement": "IC50", "setting": "[1]", "value": "< 250", "unit": "nM"}, {"measurement": "IC50", "setting": "[2]", "value": "1000 to 5000", "unit": "nM"}]}, {"smiles": "Cc1cc([C@@H](C)Nc2ccc(Cl)nc2C(=O)NS(C)(=O)=O)c2nc(N3CCc4nocc4C3)n(C)c(=O)c2c1", "note": "[Compound 332, (R)-6-chloro-3-((1-(2-(6,7-dihydroisoxazolo[4,3-c]pyridin-5(4H)-yl)-3,6-dimethyl-4-oxo-3,4-dihydroquinazolin-8-yl)ethyl)amino)-N-(methylsulfonyl) picolinamide]", "values": [{"measurement": "IC50", "setting": "[1]", "value": "< 250", "unit": "nM"}, {"measurement": "IC50", "setting": "[2]", "value": "1000 to 5000", "unit": "nM"}]}, {"smiles": "Cc1cc([C@@H](C)Nc2ccc(Cl)nc2C(=O)NS(C)(=O)=O)c2nc(-c3ccc(O[C@@H]4CCNCC4(F)F)nc3)n(C)c(=O)c2c1", "note": "[Compound 333, 6-chloro-3-(((R)-1-(2-(6-(((R)-3,3-difluoropiperidin-4-yl)oxy)pyridin-3-yl)-3,6-dimethyl-4-oxo-3,4-dihydroquinazolin-8-yl)ethyl)amino)-N-(methylsulfonyl) picolinamide]", "values": [{"measurement": "IC50", "setting": "[1]", "value": "< 250", "unit": "nM"}, {"measurement": "IC50", "setting": "[2]", "value": "1000 to 5000", "unit": "nM"}]}, {"smiles": "Cc1cc([C@@H](C)Nc2ccc(Cl)nc2C(=O)NS(C)(=O)=O)c2nc(N3CCc4nn(C5COC5)cc4C3)n(C)c(=O)c2c1", "note": "[Compound 334, (R)-6-chloro-3-((1-(3,6-dimethyl-2-(2-(oxetan-3-yl)-2,4,6,7-tetrahydro-5H-pyrazolo[4,3-c]pyridin-5-yl)-4-oxo-3,4-dihydroquinazolin-8-yl)ethyl)amino)-N-(methylsulfonyl) picolinamide]", "values": [{"measurement": "IC50", "setting": "[1]", "value": "< 250", "unit": "nM"}, {"measurement": "IC50", "setting": "[2]", "value": "1000 to 5000", "unit": "nM"}]}, {"smiles": "Cc1cc([C@@H](C)Nc2ccc(Cl)nc2C(=O)NS(C)(=O)=O)c2nc(N3CCc4c(cnn4C4COC4)C3)n(C)c(=O)c2c1", "note": "[Compound 335, (R)-6-chloro-3-((1-(3,6-dimethyl-2-(1-(oxetan-3-yl)-1,4,6,7-tetrahydro-5H-pyrazolo[4,3-c]pyridin-5-yl)-4-oxo-3,4-dihydroquinazolin-8-yl)ethyl)amino)-N-(methylsulfonyl) picolinamide]", "values": [{"measurement": "IC50", "setting": "[1]", "value": "< 250", "unit": "nM"}, {"measurement": "IC50", "setting": "[2]", "value": "1000 to 5000", "unit": "nM"}]}, {"smiles": "Cc1cc([C@@H](C)Nc2ccc(Cl)nc2C(=O)NS(C)(=O)=O)c2nc(N3C[C@@H]4[C@H](C3)[C@H]4c3cnn(C)c3)n(C)c(=O)c2c1", "note": "[Compound 336, 6-chloro-3-(((R)-1-(3,6-dimethyl-2-((1R,5S,6S)-6-(1-methyl-1H-pyrazol-4-yl)-3-azabicyclo[3.1.0]hexan-3-yl)-4-oxo-3,4-dihydroquinazolin-8-yl)ethyl)amino)-N-(methylsulfonyl) picolinamide]", "values": [{"measurement": "IC50", "setting": "[1]", "value": "< 250", "unit": "nM"}, {"measurement": "IC50", "setting": "[2]", "value": "1000 to 5000", "unit": "nM"}]}, {"smiles": "Cc1cc([C@@H](C)Nc2ccc(Cl)nc2C(=O)NS(C)(=O)=O)c2nc(N3CCC(c4cc(N)n(C)n4)CC3)n(C)c(=O)c2c1", "note": "[Compound 338, (R)-3-((1-(2-(4-(5-amino-1-methyl-1H-pyrazol-3-yl)piperidin-1-yl)-3,6-dimethyl-4-oxo-3,4-dihydroquinazolin-8-yl)ethyl)amino)-6-chloro-N-(methylsulfonyl) picolinamide]", "values": [{"measurement": "IC50", "setting": "[1]", "value": "< 250", "unit": "nM"}, {"measurement": "IC50", "setting": "[2]", "value": "1000 to 5000", "unit": "nM"}]}, {"smiles": "Cc1cc([C@@H](C)Nc2ccc(Cl)nc2C(=O)NS(C)(=O)=O)c2nc(-c3ccc(Nc4ccn(C)n4)nc3)n(C)c(=O)c2c1", "note": "[Compound 339, (R)-6-chloro-3-((1-(3,6-dimethyl-2-(6-((1-methyl-1H-pyrazol-3-yl)amino)pyridin-3-yl)-4-oxo-3,4-dihydroquinazolin-8-yl)ethyl)amino)-N-(methylsulfonyl) picolinamide]", "values": [{"measurement": "IC50", "setting": "[1]", "value": "< 250", "unit": "nM"}, {"measurement": "IC50", "setting": "[2]", "value": "1000 to 5000", "unit": "nM"}]}]}
